# In ChEMBL document CHEMBL1135073, “Solution and solid-phase synthesis of potent inhibitors of hepatitis C virus NS3 proteinase” (Bioorg Med Chem Lett, 2002):
# *1 amine or outer side, *2 acyl side, *3 side chain or, on linkers, in order; H or OH if unused. Where a SMILES comes first, the peptide text is derived from it. [ ]: non-standard residue; d: D form. The star is where a group is joined. Nleψ(COCO) = CCCC[C@H](N[*:1])C(=O)C(=O)[*:2]; Acetyl(2-naphthyl) = O=C(Cc1ccc2ccccc2c1)*; NH(1S-phenylpropyl) = CC[C@H](N*)c1ccccc1; Phe(2-Me) = Cc1ccccc1C[C@H](N)C(=O)O; NleCONH2 = CCCC[C@H](N*)C(=O)C(N)=O; 3Thi = N[C@@H](Cc1ccsc1)C(=O)O; Phg = N[C@H](C(=O)O)c1ccccc1; Suc = O=C(CCC(=O)[*:2])[*:1]; Tle = CC(C)(C)[C@H](N)C(=O)O; Bn = c1ccc(C*)cc1
# Biological target: NS3 (Hepatitis C virus, UniProt A3EZJ3)
# Test: Inhibitory concentration against Hepatitis C virus NS3 proteinase
# Parameters: species or system Hepacivirus hominis
# NS3, sequence (A3EZJ3 whole entry): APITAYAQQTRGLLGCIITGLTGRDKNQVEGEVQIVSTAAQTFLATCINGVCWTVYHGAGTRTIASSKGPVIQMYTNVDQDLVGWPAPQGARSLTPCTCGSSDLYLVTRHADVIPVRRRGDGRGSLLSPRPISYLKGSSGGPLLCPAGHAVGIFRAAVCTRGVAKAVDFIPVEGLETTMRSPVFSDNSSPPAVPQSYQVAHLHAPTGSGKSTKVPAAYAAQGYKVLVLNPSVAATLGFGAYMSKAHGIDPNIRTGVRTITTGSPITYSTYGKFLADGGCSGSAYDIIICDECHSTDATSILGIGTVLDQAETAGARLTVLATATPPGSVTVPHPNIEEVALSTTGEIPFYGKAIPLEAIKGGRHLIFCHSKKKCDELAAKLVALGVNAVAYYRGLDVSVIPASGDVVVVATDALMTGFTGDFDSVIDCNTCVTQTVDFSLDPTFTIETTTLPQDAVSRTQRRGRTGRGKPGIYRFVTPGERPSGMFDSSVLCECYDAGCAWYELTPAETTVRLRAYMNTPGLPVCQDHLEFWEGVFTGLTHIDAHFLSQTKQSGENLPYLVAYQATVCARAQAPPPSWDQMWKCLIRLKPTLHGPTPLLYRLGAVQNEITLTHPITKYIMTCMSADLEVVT
row,SMILES,IC50 [nM]
1,CCCC[C@H](NC(=O)[C@H](CC(C)C)NC(=O)[C@@H](NC(=O)[C@H](Cc1ccccc1C)NC(=O)[C@H](CCC(=O)O)NC(=O)[C@H](Cc1c[nH]c2ccccc12)NC(=O)CCC(=O)O)C(C)(C)C)C(=O)C(N)=O (Suc-WE[Phe(2-Me)][Tle]L-NleCONH2),41
2,CCCC[C@H](NC(=O)[C@H](CC(C)C)NC(=O)[C@@H](NC(=O)[C@H](Cc1ccccc1C)NC(=O)[C@H](CCC(=O)O)NC(=O)[C@H](CC(=O)O)NC(=O)Cc1ccc2ccccc2c1)C(C)(C)C)C(=O)C(N)=O ({Acetyl(2-naphthyl)}-DE[Phe(2-Me)][Tle]L-NleCONH2),90
3,CCCC[C@H](NC(=O)[C@H](Cc1ccsc1)NC(=O)[C@@H](NC(=O)[C@H](Cc1ccccc1C)NC(=O)[C@H](CCC(=O)O)NC(=O)[C@H](CC(=O)O)NC(=O)CCC(=O)O)C(C)(C)C)C(=O)C(N)=O (Suc-DE[Phe(2-Me)][Tle][3Thi]-NleCONH2),130
4,CCCC[C@H](NC(=O)[C@H](CC(C)C)NC(=O)[C@@H](NC(=O)[C@H](Cc1ccc(OCc2ccccc2)cc1)NC(=O)[C@H](CCC(=O)O)NC(=O)[C@H](CC(=O)O)NC(=O)CCC(=O)O)C(C)(C)C)C(=O)C(N)=O (Suc-DEY(Bn)[Tle]L-NleCONH2),110
5,CCCC[C@H](NC(=O)[C@H](CC(C)C)NC(=O)[C@@H](NC(=O)[C@H](Cc1ccccc1C)NC(=O)[C@@H](NC(=O)[C@H](CC(=O)O)NC(=O)CCC(=O)O)C(C)C)C(C)(C)C)C(=O)C(N)=O (Suc-DV[Phe(2-Me)][Tle]L-NleCONH2),20
6,CCCC[C@H](NC(=O)[C@H](CC(C)C)NC(=O)[C@@H](NC(=O)[C@H](Cc1ccccc1C)NC(=O)[C@H](COCc1ccccc1)NC(=O)[C@H](CC(=O)O)NC(=O)CCC(=O)O)C(C)(C)C)C(=O)C(N)=O (Suc-DS(Bn)[Phe(2-Me)][Tle]L-NleCONH2),29
7,CCCC[C@H](NC(=O)[C@H](CC(C)C)NC(=O)[C@@H](NC(=O)[C@H](Cc1ccccc1C)NC(=O)[C@H](CCC(=O)O)NC(=O)[C@H](CC(=O)O)NC(=O)CCC(=O)O)C(C)(C)C)C(=O)C(=O)N[C@@H](CC)c1ccccc1 (Suc-DE[Phe(2-Me)][Tle]L[Nleψ(COCO)]-{NH(1S-phenylpropyl)}),11
8,CCCC[C@H](NC(=O)[C@H](CC(C)C)NC(=O)[C@@H](NC(=O)[C@H](Cc1ccccc1C)NC(=O)[C@H](CCC(=O)O)NC(=O)[C@H](CC(=O)O)NC(=O)CCC(=O)O)c1ccccc1)C(=O)C(N)=O (Suc-DE[Phe(2-Me)][Phg]L-NleCONH2),42
